Assay results reported in patent publication US20260028337A1, “COMPOUND FOR INHIBITING IRAK4 ACTIVITY AND USE THEREOF” (SHENZHEN ZHONGGE BIOLOGICAL TECHNOLOGY CO., LTD., priority 2022, published 2026).
Counter-ions that a name gives are not always drawn.

Molecular target: IRAK4 kinase (Homo sapiens (Human), UniProt Q9NWZ3)
Experiment: IRAK4 Kinase Inhibition Assay (Cisbio HTRF KinEASE-STK S1 kit)
Type: biochemical
Conditions: IRAK4 kinase protein 10 nM, ATP 200 μM, STK Substrate 1-biotin 1 μM, 37° C. 2 h, read-out: IC50 (nM), IRAK4 kinase inhibitory activity
Method: Test Example 1. IRAK4 Kinase Inhibition Assay
In this assay, Cisbio HTRF KinEASE-STK SI kit (62S 1 PEB) was used, in which assay/detection buffer, STK Substrate 1-biotin, Streptavidin-XL665, STK Antibody-Cryptate were contained.
After adding compound/DMSO to a 384-well plate (PerkinElmer 6008280) using Echo 665, 5 μL of 2-fold reaction concentration of IRAK4 kinase protein (final concentration: 10 nM) dissolved with assay buffer [1 volume of 5× kinase buffer+20 mM magnesium chloride (Sigma) solution+1 mM DTT (Alfa Aesar) solution+4 volumes deionized water] was added, followed by sealing the shallow well plate, shaking and then centrifuging at 1000 rpm for 1 min, and incubating at room temperature for 5 min; then 5 μL of 2-fold reaction concentration of a 1:1 mixture of STK Substrate 1-biotin (final concentration: 1 μM) and ATP (Sigma A1852) (final concentration: 200 μM) formulated with assay buffer was added, followed by sealing the shallow well plate, shaking and then centrifuging at 1000 rpm for 1 min, and incubating at 37° C. for 2 h, and then 10 μL of a 1:1 mixture of Streptavidin-XL665 (final concentration: 62.5 nM) and STK-antibody-cryptate dissolved with detection buffer was added, followed by sealing the shallow well plate, shaking and then centrifuging at 1000 rpm for 1 min, and incubating at room temperature for 1 h, and thereafter reading the value at the wavelength of 620 nm/665 nm using a microplate reader. The data were analyzed using Prism 9.3 software, and the IC50 value of IRAK4 kinase inhibition was fitted using a four parameter Logistic equation.

IRAK4 kinase, sequence (Q9NWZ3 whole entry): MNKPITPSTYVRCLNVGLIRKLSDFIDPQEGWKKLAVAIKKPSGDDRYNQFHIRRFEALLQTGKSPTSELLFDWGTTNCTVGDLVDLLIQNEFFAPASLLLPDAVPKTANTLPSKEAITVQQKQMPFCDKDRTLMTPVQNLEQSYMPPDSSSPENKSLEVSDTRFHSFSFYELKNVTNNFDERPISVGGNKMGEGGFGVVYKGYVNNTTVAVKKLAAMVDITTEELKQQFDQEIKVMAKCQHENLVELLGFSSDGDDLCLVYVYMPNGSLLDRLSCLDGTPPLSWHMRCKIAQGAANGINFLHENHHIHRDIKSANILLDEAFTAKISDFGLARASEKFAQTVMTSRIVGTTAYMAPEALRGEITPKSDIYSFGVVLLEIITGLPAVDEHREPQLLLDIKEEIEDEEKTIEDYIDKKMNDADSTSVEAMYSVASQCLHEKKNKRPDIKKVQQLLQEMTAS

IC50 [nM] | SMILES
100 to 1000 | CC1(C)C[C@@H](n2cc(-n3cc(-c4cnn5ccc(N6CCOCC6)nc45)nn3)c(C(F)F)n2)CCN1 [Compound 87A, (S)-4-(3-(1-(3-(difluoromethyl)-1-(2,2-dimethylpiperidin-4-yl)-1H-pyrazol-4-yl)-1,2,3-triazol-4-yl]pyrazolo[1,5-a]pyrimidin-5-yl) morpholine]
100 to 1000 | CC1(C)COCCN1c1ccn2ncc(-c3cn(-c4cn([C@H]5CC[C@H](CO)CC5)nc4C(F)F)nn3)c2n1 [Compound 88A, ((1r,4r)-4-(3-(difluoromethyl)-4-(4-(5-(3,3-dimethylmorpholinyl)pyrazolo[1,5-a]pyrimidin-3-yl)-1H-1,2,3-triazol-1-yl)-1H-pyrazol-1-yl)cyclohexyl)methanol]
100 to 1000 | CC1(C)CN(c2ccn3ncc(-c4cn(-c5cn(C6CCC(CO)CC6)nc5C(F)F)nn4)c3n2)CCO1 (centres unmarked) [Compound 89A, ((1r,4r)-4-(3-(difluoromethyl)-4-(4-(5-(2,2-dimethylmorpholinyl)pyrazolo[1,5-a]pyrimidin-3-yl)-1H-1,2,3-triazol-1-yl)-1H-pyrazol-1-ylcyclohexyl)methanol]
100 to 1000 | OC[C@H]1CC[C@H](n2cc(-n3cc(-c4cnn5ccc(N6CC7(COC7)C6)nc45)nn3)c(C(F)F)n2)CC1 [Compound 90A, ((1r, 4r)-4-(4-(4-(5-(2-oxa-6-azaspiro[3.3]heptan-6-yl)pyrazolo[1,5-a]pyrimidin-3-yl)-1H-1,2,3-triazol-1-yl)-3-(difluoromethyl)-1H-pyrazol-1-yl]cyclohexyl)methanol]
100 to 1000 | O=S1(=O)CCN(c2ccn3ncc(-c4cn(-c5cn([C@H]6CC[C@H](CO)CC6)nc5C(F)F)nn4)c3n2)CC1 [Compound 91A, 4-(3-(1-(3-(difluoromethyl)-1-((1r,4r)-4-(methylol)cyclohexyl)-1H-pyrazol-4-yl)-1H-1,2,3-triazol-4-yl)pyrazolo[1,5-a]pyrimidin-5-yl)thiomorpholine 1,1-dioxide]
< 100 | CC(C)(O)CCNc1ccn2ncc(-c3cn(-c4cn([C@H]5CC[C@H](CO)CC5)nc4C(F)F)nn3)c2n1 [Compound 92A, 4-((3-(1-(3-(difluoromethyl)-1-((1r,4r)-4-(methylol)cyclohexyl)-1H-pyrazol-4-yl)-1H-1,2,3-triazol-4-yl]pyrazolo[1,5-a]pyrimidin-5-yl)amino)-2-methylbutan-2-ol]
< 100 | CC1(O)CCN(c2ccn3ncc(-c4cn(-c5cn([C@H]6CC[C@H](CO)CC6)nc5C(F)F)nn4)c3n2)CC1 [Compound 93A, 1-(3-(1-(3-difluoromethyl)-1-((1r,4r)-4-(methylol)cyclohexyl)-1H-pyrazol-4-yl)-1H-1,2,3-triazol-4-ylpyrazolo[1,5-a]pyrimidin-5-yl)-4-methylpiperidin-4-ol]
< 100 | OC[C@H]1CC[C@H](n2cc(-n3cc(-c4cnn5ccc(NCC6CC6)nc45)nn3)c(C(F)F)n2)CC1 [Compound 94A, ((1r,4r)-4-(4-(4-(5-((cyclopropylmethyl)amino)pyrazolo[1,5-a]pyrimidin-3-yl)-1H-1,2,3-triazol-1-yl)-3-(difluoromethyl)-1H-pyrazol-1-yl)cyclohexyl)methanol]
100 to 1000 | CN1CCN(c2ccn3ncc(-c4cn(-c5cn([C@H]6CC[C@H](CO)CC6)nc5C(F)F)nn4)c3n2)CC1 [Compound 95A, (1R,4R)-4-(3-difluoromethyl)-4-(4-(5-(4-methylpiperazin-1-yl)pyrazolo[1,5-a]pyrimidin-3-yl)-1H-1,2,3-triazol-1-yl)-1H-pyrazol-1-yl)cyclohexylmethanol formate]
100 to 1000 | OC[C@H]1CC[C@H](n2cc(-n3cc(-c4cnn5ccc(N6CC(O)C6)nc45)nn3)c(C(F)F)n2)CC1 [Compound 96A, 1-(3-(1-(3-difluoromethyl)-1-((1r,4r)-4-(methylol)cyclohexyl)-1H-pyrazol-4-yl)-1H-1,2,3-triazol-4-ylpyrazolo[1,5-a]pyrimidin-5-yl)azetidin-3-ol]
< 100 | OC[C@H]1CC[C@H](n2cc(-n3cc(-c4cnn5ccc(N6CCC(O)CC6)nc45)nn3)c(C(F)F)n2)CC1 [Compound 97A]
< 100 | OC[C@H]1CC[C@H](n2cc(-n3cc(-c4cnn5ccc(N6CCCOCC6)nc45)nn3)c(C(F)F)n2)CC1 [Compound 98A]
100 to 1000 | OCC1CCC(n2cc(-n3cc(-c4cnn5ccc(N6CC7CC[C@H](C6)O7)nc45)nn3)c(C(F)F)n2)CC1 (some centres unmarked) [Compound 99A, ((1r,4r)-4-(4-(4-(5-(8-oxa-3-azabicyclo[3.2.1]oct-3-yl)pyrazolo[1,5-a]pyrimidin-3-yl)-1H-1,2,3-triazol-1-yl)-3-(difluoromethyl)-1H-pyrazol 1-yl)cyclohexyl)methanol]
< 100 | OC[C@H]1CC[C@H](n2cc(-n3cc(-c4cnn5ccc(N6CCCC(O)C6)nc45)nn3)c(C(F)F)n2)CC1 (some centres unmarked) [Compound 100A]
100 to 1000 | OC[C@H]1CC[C@H](n2cc(-n3cc(-c4cnn5ccc(N6CCC(O)C6)nc45)nn3)c(C(F)F)n2)CC1 (some centres unmarked) [Compound 101A]
100 to 1000 | CN(C)C1CCN(c2ccn3ncc(-c4cn(-c5cn(C6CCC(CO)CC6)nc5C(F)F)nn4)c3n2)CC1 (centres unmarked) [Compound 102A, ((1r, 4r)-4-(3-(difluoromethyl)-4-(4-(5-(4-(dimethylamino)piperidin-1-yl)pyrazolo[1,5-a]pyrimidin-3-yl)-1H-1,2,3-triazol-1-yl)-1H-pyrazol-1-ylcyclohexyl)methanol]
< 100 | N[C@H]1CCCN(c2ccn3ncc(-c4cn(-c5cn(C6CCC(CO)CC6)nc5C(F)F)nn4)c3n2)C1 (stereo partly drawn) [Compound 103A, ((1r, 4r)-4-(4-(4-(5-((S)-3-aminopiperidin-1-yl)pyrazolo[1,5-a]pyrimidin-3-yl)-1H-1,2,3-triazol-1-yl)-3-(difluoromethyl)-1H-pyrazol-1-yl]cyclohexyl) methanol]
< 100 | OC[C@H]1CC[C@H](n2cc(-n3cc(-c4cnn5ccc(N6CCOCC6)nc45)nn3)c(C(F)F)n2)CC1 [Compound 104A, ((1r,4r)-4-(3-(difluoromethyl)-4-(4-(5-morpholinyl-pyrazolo[1,5-a]pyrimidin-3-yl)-1H-1,2,3-triazol-1-yl)-1H-pyrazol-1-yl]cyclohexyl)methanol]
100 to 1000 | OCC1CCC(n2cc(-n3cc(-c4cnn5ccc(N6C[C@H]7C[C@@H]6CO7)nc45)nn3)c(C(F)F)n2)CC1 (stereo partly drawn) [Compound 105A, ((1R,4r)-4-(4-(4-(5-((1R,4r)-2-oxa-5-azabicyclo[2.2.1]heptan-5-yl)pyrazolo[1,5-a]pyrimidin-3-yl)-1H-1,2,3-triazol-1-yl)-3-(difluoromethyl)-1H-pyrazol-1-yl)cyclohexyl)methanol]
< 100 | N[C@@H]1CCCN(c2ccn3ncc(-c4cn(-c5cn(C6CCC(CO)CC6)nc5C(F)F)nn4)c3n2)C1 (some centres unmarked) [Compound 106A]
< 100 | OCC1CCC(n2cc(-n3cc(-c4cnn5ccc(N[C@H]6CCCC[C@H]6O)nc45)nn3)c(C(F)F)n2)CC1 (stereo partly drawn) [Compound 107A, (1R,2S)-2-((3-(1-(3-(difluoromethyl)-1-((1R,4S)-4-(methylol)cyclohexyl)-1H-pyrazol-4-yl)-1H-1,2,3-triazol-4-yl]pyrazolo[1,5-a]pyrimidin-5-yl)amino)cyclohexan-1-ol]
< 100 | NC1CN(c2ccn3ncc(-c4cn(-c5cn([C@H]6CC[C@H](CO)CC6)nc5C(F)F)nn4)c3n2)CC(F)(F)C1 (some centres unmarked) [Compound 108A]
< 100 | C[C@H]1CN(c2ccn3ncc(-c4cn(-c5cn(C6CCC(CO)CC6)nc5C(F)F)nn4)c3n2)C[C@H](C)O1 (some centres unmarked) [Compound 109A]
< 100 | OC[C@H]1CC[C@H](n2cc(-n3cc(-c4cnn5ccc(N[C@@H]6CCCC[C@@H]6O)nc45)nn3)c(C(F)F)n2)CC1 [Compound 111A, (1S,2R)-2-((3-(1-(3-(difluoromethyl)-1-((1r,4R)-4-(methylol)cyclohexyl)-1H-pyrazol-4-yl)-1H-1,2,3-triazol-4-yl]pyrazolo[1,5-a]pyrimidin-5-yl)amino)cyclohexan-1-ol]
< 100 | OCC1CCC(n2cc(-n3cc(-c4cnn5ccc(N6CCC[C@H](O)C6)nc45)nn3)c(C(F)F)n2)CC1 (stereo partly drawn) [Compound 112A, (S)-1-(3-(1-(3-(difluoromethyl)-1-((1r,4r)-4-(methylol)cyclohexyl)-1H-pyrazol-4-yl)-1H-1,2,3-triazol-4-yl]pyrazolo[1,5-a]pyrimidin-5-yl)piperidin-3-ol]
< 100 | OCC1CCC(n2cc(-n3cc(-c4cnn5ccc(N6CCC[C@@H](O)C6)nc45)nn3)c(C(F)F)n2)CC1 (stereo partly drawn) [Compound 113A, (R)-1-(3-(1-(3-(difluoromethyl)-1-((1r,4r)-4-(methylol)cyclohexyl)-1H-pyrazol-4-yl)-1H-1,2,3-triazol-4-yl]pyrazolo[1,5-a]pyrimidin-3-yl) piperidin-3-ol]
